How the values were obtained:
[1] = in vivo; cited from earlier work
HIV = conditions: week 48; cited from earlier work
[2] = Intensive steady-state plasma pharmacokinetics of dolutegravir, Stage I; format: in vivo, human (HIV-1 infected treatment-experienced adolescents); conditions: Stage I N=10, ~1 mg/kg once daily; for AUC(0-t) / concentration at 24 h / Cmax / half-life: human, plasma, oral, 1 mg/kg
HIV-1 = experiment: Virologic efficacy: plasma HIV-1 RNA through Week 48; format: in vivo, human (HIV-1 infected treatment-experienced adolescents); conditions: Week 48, N=23, dolutegravir plus OBR
CD4 cell count = experiment: Change from baseline in CD4 cell count and percentage at Week 48; format: in vivo, human (HIV-1 infected treatment-experienced adolescents); conditions: Week 48, dolutegravir plus OBR
[3] = system: virus with R263K mutation at virologic failure; conditions: adult study where R263K mutation was seen; cited from earlier work
[4] = Safety and adverse events through Week 48
[5] = Grade 1 or 2 transient clinical events, N=23, not considered related to dolutegravir

## CCC[C@@]1(CCc2ccccc2)CC(O)=C([C@H](CC)c2cccc(NS(=O)(=O)c3ccc(C(F)(F)F)cn3)c2)C(=O)O1 [tipranavir]
[1]
  children reporting serious adverse events: 25%
  treatment discontinuation due to serious adverse events: 8%

## Cc1nnc(C(=O)NC(C)(C)c2nc(C(=O)NCc3ccc(F)cc3)c(O)c(=O)n2C)o1 [raltegravir]
HIV
  virologic efficacy of the adolescent cohort: 57%

## C[C@@H]1CCO[C@H]2Cn3cc(C(=O)NCc4ccc(F)cc4F)c(=O)c(O)c3C(=O)N12 [Dolutegravir]
[2]
  C24, GM (geometric mean): 0.90 µg/mL
  CL/F, GM: 78.03 L/h
  CL/F, Mean (SD): 1.25 (±0.97) L/hr
  CL/F, Median (min, max): 0.87 (0.59, 3.83) L/hr
  Tmax, Median (min, max): 3.00 (1.00, 6.00) hr
[2]; AUC0–24, GM, Table 2
  AUC(0-t): 43100 ng·h/mL
[2]; AUC0–24, Mean (SD)
  AUC(0-t): 51600 ng·h/mL
[2]; AUC0–24, Median (min, max)
  AUC(0-t): 52900 ng·h/mL
[2]; C24, GM (geometric mean)
  concentration at 24 h: 900 ng/mL
[2]; C24, Mean (SD)
  concentration at 24 h: 1090 ng/mL
[2]; C24, Median (min, max)
  concentration at 24 h: 1140 ng/mL
[2]; Mean (SD)
  Cmax: 3820 ng/mL
[2]; Median (min, max)
  Cmax: 4010 ng/mL
[2]; T1/2, GM
  half-life: 11.9 h
[2]; T1/2, Median (min, max)
  half-life: 10.4 h
HIV-1
  Virologic success: proportion with HIV RNA < 400 copies/mL: 74%
  proportion with HIV RNA < 50 copies/mL: 61%
CD4 cell count
  Median (IQR) gain in CD4 cell count: 84 cells/µL
[3]
  dolutegravir FC values at virologic failure: < 2 fold
[4]; [5]
  abdominal pain, subjects: 21%
  arthralgia, subjects: 13%
  back pain, subjects: 13%
  decrease appetite, subjects: 30%
  diarrhea, subjects: 35%
  dizziness, subjects: 17%
  extremity pain, subjects: 26%
  fever, subjects: 30%
  headache, subjects: 26%
  lymphadenopathy, subjects: 26%
  nasal congestion, subjects: 30%
  nausea, subjects: 13%
  pharyngeal pain, subjects: 35%
  sinus congestion, subjects: 17%
[4]; through Week 48
  Grade 4 AEs, SAEs or discontinuations due to AEs: no Grade 4 AEs, SAEs or discontinuations due to AEs
[4]; through Week 48, dolutegravir plus OBR
  tolerability: well tolerated

Reference: paper PMC4604048 (The Pediatric infectious disease journal, 2015)
